Data on one substance can be found in patent US20240335500A1, “CONTROLLING PRO-INFLAMMATORY MACROPHAGE PHENOTYPE THROUGH BIOFUNCTIONAL HYDROGEL DESIGN” (UNIVERSITY OF FLORIDA RESEARCH FOUNDATION, INCORPORATED, priority 2021, published 2024).

For test [1], the system named is Raw 264.7 macrophages. Description: Soluble delivery of DGEA to 2D cultures of M1-stimulated macrophages, iNOS/DAPI immunostaining. Type of test: cell-based, mouse. The note with it: 2D culture, M1 media (100 ng/mL LPS, 10 ng/mL IFNγ), 5 mM soluble DGEA, 72 hrs; without DGEA 0.5±0.1; p<0.05. As to the method: To establish interactions between DGEA and M1 macrophages, a 2D study was conducted with soluble delivery of DGEA to the media culture. […] 5 mM DGEA was dissolved in the media to assess the effects of DGEA on macrophage activation (S. Y. Yoo, M. Kobayashi, P. P. Lee, and S. W. Lee, “Early osteogenic differentiation of mouse preosteoblasts induced by collagen-derived DGEA-peptide on nanofibrous phage tissue matrices,” Biomacromolecules, vol. 12, no. 4, pp. 987-996, April 2011). After stimulation, the cells were stained for 4′,6-diamidino-2-phenylindole (DAPI) and iNOS (inset (b) of FIG. 1). The addition of 5 mM DGEA in the media reduced the number of iNOS^+ cells, as represented in insets (b) and (c) in FIG. 1. The iNOS^+ cell count was normalized to the number of DAPI^+ cells for each image chosen to be analyzed. […] Polarized iNOS^+ macrophage cells with soluble DGEA were dramatically lower than iNOS^+ macrophage cells without any presence of DGEA. […] ECM-derived peptides have been investigated in cell function. For example, the interaction between collagen and α2β1 integrin is important for the osteoblastic differentiation of bone marrow cells. […]
(§1) Cells were stimulated with M1 media 24 hrs post-seeding and post-encapsulation. In all studies, the effects of DGEA on the cells were assessed 72 hrs post-stimulation with M1 media by immunocytochemistry (ICC). […]

A further test deals with bone marrow cells. Conditions: bone marrow cells encapsulated in type I collagen matrix gels, Mizuno et al.; cited from earlier work.
The subject of another test is ovarian carcinoma cells. Conditions: Fishman et al.; cited from earlier work.
The test system of another test is platelets. The note with it: Luzak et al.; cited from earlier work.
In test [2] the test system is Raw 264.7 macrophages. The test is described as follows: Soluble delivery of DGEA to macrophages encapsulated in 3D control PEG hydrogels, iNOS/DAPI immunostaining. It is filed as cell-based, mouse. The note with it: 3D control hydrogel (3.5 mM PEG-RGDS, 5% PEG-PQ-PEG), 5 mM soluble DGEA in M1 media, 72 hrs; non-significant (p>0.05). Here is the method:
Raw 264.7 macrophages were encapsulated within the hydrogel. These quiescent M0 macrophages were allowed to equilibrate in the incubator for 24 hrs, after which M1 media was added to stimulate them towards the pro-inflammatory phenotype. At this time, 5 mM DGEA was also dissolved into the media and the samples were incubated for another 72 hrs. The samples were then fixed, stained, imaged, and analyzed. The immunofluorescent images represent DAPI stained cells and iNOS stained cells (inset (b) in FIG. 2). The 3D hydrogels were imaged using a Keyence BZ-X800 microscope and the images represent 2D slices of an entire 3D Z-stack. […] The data were statistically non-significant (p>0.05). […]
as §1
Images were quantified based on the number of iNOS^+ cells, normalized to DAPI^+ cells for each condition. Images were analyzed using the “automated cell counting of single color image” feature on ImageJ (NIH) software after a randomized, unbiased selection of images. All images were turned to 8-bit grayscale and threshold to highlight all the cells to be counted. […]

For test [3], the system named is TNFα, IL-6, iNOS gene expression. Description: RT-PCR of pro-inflammatory gene expression (TNFα, IL-6, iNOS). It is filed as cell-based. The note with it: FIG. 7. An excerpt: The results validate the inflammation inhibiting properties of DGEA by looking at pro-inflammatory gene expressions. The genes assessed include TNFα (a); IL-6 (b); and iNOS (c).
For test [4], the system named is Raw 264.7 macrophages. Description: iNOS and CD206 expression in M0, M1 and M2 raw 264.7 macrophages encapsulated in control and PEG-DGEA hydrogels. Type of test: cell-based, mouse.
In the next test the target is T1, α2β1 integrin (Homo sapiens, UniProt P05556+P17301).
T1 construct: Integrin α2β1 appears to play a pivotal role in macrophage polarization by affecting downstream signaling pathways
The note with it: DGEA-coated plates, Cha et al.; cited from earlier work.

T1 sequence (P17301 30-1181): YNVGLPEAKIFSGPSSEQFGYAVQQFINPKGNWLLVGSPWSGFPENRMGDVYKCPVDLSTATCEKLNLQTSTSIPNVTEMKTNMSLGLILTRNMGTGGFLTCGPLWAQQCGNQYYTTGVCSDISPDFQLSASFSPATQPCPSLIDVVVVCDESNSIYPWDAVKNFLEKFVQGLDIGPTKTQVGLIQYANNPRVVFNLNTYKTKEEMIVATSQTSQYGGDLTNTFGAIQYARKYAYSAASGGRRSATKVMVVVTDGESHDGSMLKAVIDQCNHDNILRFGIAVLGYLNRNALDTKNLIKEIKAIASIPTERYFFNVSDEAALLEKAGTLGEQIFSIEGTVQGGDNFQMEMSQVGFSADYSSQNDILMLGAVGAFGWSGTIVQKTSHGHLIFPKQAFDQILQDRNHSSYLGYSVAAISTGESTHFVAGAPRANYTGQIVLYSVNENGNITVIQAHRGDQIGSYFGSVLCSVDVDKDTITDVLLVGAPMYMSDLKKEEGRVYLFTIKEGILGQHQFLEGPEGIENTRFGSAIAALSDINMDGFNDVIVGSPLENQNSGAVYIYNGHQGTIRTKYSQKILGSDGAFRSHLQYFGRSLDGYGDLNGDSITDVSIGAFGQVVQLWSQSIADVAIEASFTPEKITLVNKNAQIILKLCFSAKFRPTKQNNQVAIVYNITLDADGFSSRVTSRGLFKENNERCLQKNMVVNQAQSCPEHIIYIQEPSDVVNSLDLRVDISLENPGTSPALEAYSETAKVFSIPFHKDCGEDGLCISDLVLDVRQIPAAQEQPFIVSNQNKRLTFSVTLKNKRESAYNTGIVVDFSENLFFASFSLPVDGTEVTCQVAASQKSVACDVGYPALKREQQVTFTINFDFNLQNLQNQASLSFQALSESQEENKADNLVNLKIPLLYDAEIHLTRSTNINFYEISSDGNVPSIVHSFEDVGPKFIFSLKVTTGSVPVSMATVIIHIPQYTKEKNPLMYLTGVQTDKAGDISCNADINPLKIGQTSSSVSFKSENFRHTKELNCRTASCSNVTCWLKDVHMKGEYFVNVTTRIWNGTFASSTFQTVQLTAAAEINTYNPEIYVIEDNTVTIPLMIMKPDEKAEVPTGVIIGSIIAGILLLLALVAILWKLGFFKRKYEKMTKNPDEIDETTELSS
T1 sequence (P05556 21-798): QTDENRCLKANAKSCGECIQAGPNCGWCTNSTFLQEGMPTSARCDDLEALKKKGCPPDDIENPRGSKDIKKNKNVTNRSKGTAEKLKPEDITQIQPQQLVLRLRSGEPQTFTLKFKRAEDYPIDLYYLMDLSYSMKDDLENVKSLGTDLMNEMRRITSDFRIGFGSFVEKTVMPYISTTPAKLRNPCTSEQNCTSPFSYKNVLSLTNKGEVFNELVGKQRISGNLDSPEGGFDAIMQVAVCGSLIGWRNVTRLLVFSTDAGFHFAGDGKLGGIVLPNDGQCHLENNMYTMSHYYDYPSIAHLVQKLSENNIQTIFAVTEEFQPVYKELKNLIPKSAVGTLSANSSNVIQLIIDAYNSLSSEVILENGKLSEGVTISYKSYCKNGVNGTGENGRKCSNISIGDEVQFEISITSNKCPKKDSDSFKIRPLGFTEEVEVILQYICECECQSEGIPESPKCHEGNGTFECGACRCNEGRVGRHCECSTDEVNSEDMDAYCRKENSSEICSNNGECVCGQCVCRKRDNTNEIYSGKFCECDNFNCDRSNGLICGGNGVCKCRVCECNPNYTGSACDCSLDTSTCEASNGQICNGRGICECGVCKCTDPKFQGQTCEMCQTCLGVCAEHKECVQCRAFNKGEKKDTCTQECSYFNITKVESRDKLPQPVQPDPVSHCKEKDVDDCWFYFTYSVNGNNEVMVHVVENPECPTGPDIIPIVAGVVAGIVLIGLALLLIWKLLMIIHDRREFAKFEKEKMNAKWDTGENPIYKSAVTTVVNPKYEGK

“Asp-Gly-Glu-Ala (DGEA; DGEA peptide sequence)”: the “iNOS+ M1 activated macrophages as fraction of the total DAPI+ cells” value in the test with Raw 264.7 macrophages [1] was 0.1±0.1. The “expression of osteoblastic phenotype” value with bone marrow cells is given as “inhibited the expression of osteoblastic phenotype”. In the test on ovarian carcinoma cells, the “adhesion of ovarian carcinoma cells to collagen” value is “block adhesion”. In addition, in the test with platelets, the platelet adhesion result is reported as “significant inhibition in platelet adhesion”. In the test with Raw 264.7 macrophages [2], the “number of iNOS+ cells (normalized to DAPI+ cells)” value is “lower than the number of iNOS^+ cells without any DGEA”. Further, in test [3], the “expression of pro-inflammatory mediators (TNFα, IL-6, iNOS) by RT-PCR” value is recorded as “significantly reduces expression”. The iNOS expression result in the test on Raw 264.7 macrophages [4] (M0, M1 and M2 macrophages encapsulated in PEG-DGEA vs control hydrogels, FIG. 8) is listed as “reduced iNOS expression”. In addition, the CD206 expression entry in the test on Raw 264.7 macrophages [4] (M1 or M2 macrophage phenotypes in PEG-DGEA hydrogels, FIG. 9) was “did not appear to have any significant effects”. Further, the “expression of CD206 (M2 marker)” value with α2β1 integrin is given as “higher expression of CD206”.
